The target in the assay is Bromodomain-containing protein 4 (Homo sapiens, UniProt O60885). Nature of the assay: Time-Resolved Fluorescence Resonance energy Transfer (TR-FRET) Assay: For this purpose, a time-resolved fluorescence resonance energy transfer (TR-FRET) assay was used, which measures the binding between N-terminally His6-tagged BRD4(1) (amino acids 44-168) and a synthetic acetylated histone H4 (Ac-H4) peptide with sequence GRGK(Ac)GGK(Ac)GLGK(Ac)GGAK(Ac)RHGSGSK-biotin. The recombinant BRD4 protein produced in-house according to Filippakopoulos et al., Cell, 2012, 149:214-231 was expressed in E. coli and purified by means of (Ni-NTA) affinity and (Sephadex G-75) size exclusion chromatography. The Ac-H4 peptide can be purchased, for example, from Biosyntan (Berlin, Germany).In the assay, typically 11 different concentrations of each substance (0.1 nM, 0.33 nM, 1.1 nM, 3.8 nM, 13 nM, 44 nM, 0.15 μM, 0.51 μM, 1.7 μM, 5.9 μM and 20 μM) were analysed as duplicates on the same microtitre plate. For this purpose, 100-fold concentrated solutions in DMSO were prepared by serial dilutions (1:3.4) of a 2 mM stock solution into a clear, 384-well microtitre plate (Greiner Bio-One, Frickenhausen, Germany). From this, 50 nl were transferred into a black test plate (Greiner Bio-One, Frickenhausen, Germany). […]. A general note: Time-resolved FRET reads energy transfer from a long-lived donor to a nearby acceptor.

pIC50: −log10 of the molar value.

Our source for the IC50 values is ChEMBL document CHEMBL5726262, “BET protein-inhibiting 5-aryltriazoleazepines” (2017).

Regarding `Cc1nnc2n1-c1ccc(OC(F)(F)F)cc1C(c1ccc(Cl)cc1)=C[C@H]2CC(=O)N1CC2(COC2)C1`, the pIC50 (as a rule, the negative decadic logarithm of the IC50, by convention in mol/L) was 6.66.
